Source: PMC9123836 (Bioorganic & Medicinal Chemistry, 2022)

How the values were obtained:
LO2 cells = assay: cytotoxicity against normal cells; assay type: cell-based, human; settings: at the 100 µM level; MTT, 72 h
[1] = test system: SARS-CoV-2 spike pseudovirus; assay: organism not typed; assay type: cell-based
α-glucosidase [2] = target: T1, α-glucosidase (Saccharomyces cerevisiae, UniProt P53341); assay: enzyme kinetic study; assay type: biochemical; settings: Lineweaver-Burk plot
α-glucosidase [3] = target: T1, α-glucosidase; assay: in vitro α-glucosidase inhibitory activity; assay type: biochemical; settings: mean ± SD (n = 3); test concentration not given

T1 sequence (P53341 whole entry): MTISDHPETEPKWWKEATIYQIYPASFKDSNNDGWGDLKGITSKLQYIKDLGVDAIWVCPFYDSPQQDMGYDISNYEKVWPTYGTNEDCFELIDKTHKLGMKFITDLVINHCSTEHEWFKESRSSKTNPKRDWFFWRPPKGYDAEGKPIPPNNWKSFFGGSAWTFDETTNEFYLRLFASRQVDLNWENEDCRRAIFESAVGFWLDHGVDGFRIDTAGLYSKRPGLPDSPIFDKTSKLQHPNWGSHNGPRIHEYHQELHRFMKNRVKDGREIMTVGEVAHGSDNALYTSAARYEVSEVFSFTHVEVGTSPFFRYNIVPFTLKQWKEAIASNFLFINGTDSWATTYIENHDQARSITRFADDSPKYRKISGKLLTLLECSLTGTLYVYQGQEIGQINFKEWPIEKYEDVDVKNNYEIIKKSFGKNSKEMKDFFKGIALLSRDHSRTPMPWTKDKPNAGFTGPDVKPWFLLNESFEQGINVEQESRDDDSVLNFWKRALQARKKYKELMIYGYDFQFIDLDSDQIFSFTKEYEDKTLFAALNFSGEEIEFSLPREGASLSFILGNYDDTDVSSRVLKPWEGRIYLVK

C=CCc1cc(CSc2nnc(-c3cccnc3)o2)c(O)c(-c2ccc(O)c(CC=C)c2)c1 [Compound 9r]
survival rates of LO2 cells (LO2 cells): above 80%

Cc1cc(-c2ccc(/N=N/c3ccc4c(S(=O)(=O)O)cc(S(=O)(=O)O)c(N)c4c3O)c(C)c2)ccc1/N=N/c1ccc2c(S(=O)(=O)O)cc(S(=O)(=O)O)c(N)c2c1O [Evans blue, reference compound]
IC50 ([1]; HEK293, read-out: IC50 (µM) against pseudovirus entry): 22 ± 1.98 µM

C=CCc1cc(CSc2nnc(-c3ccccc3)o2)c(O)c(-c2ccc(O)c(CC=C)c2)c1 [Compound 9a]
inhibition of SARS-CoV-2 pseudovirus entry ([1]; at 100 μM): almost completely inhibited
survival rates of LO2 cells (LO2 cells): above 80%

C=CCc1cc(-c2cc(CC=C)c3oc(SCc4nnc(-c5cccc(C)c5)o4)nc3c2)c2oc(SCc3nnc(-c4cccc(C)c4)o3)nc2c1 [Compound 7l]
inhibition mode towards α-glucosidase (α-glucosidase [2]): noncompetitive α-glucosidase inhibitor
survival rates of LO2 cells (LO2 cells): above 80%

C[C@H]1O[C@H](O[C@H]2[C@H](O)[C@@H](O)[C@@H](O[C@H]3[C@H](O)[C@@H](O)C(O)O[C@@H]3CO)O[C@@H]2CO)[C@H](O)[C@@H](O)[C@@H]1N[C@H]1C=C(CO)[C@@H](O)[C@H](O)[C@H]1O (stereo partly shown) [acarbose]
Inhibition rate (%) (α-glucosidase [3]): 96.4 ± 0.5%
